Read-outs that look alike come from different tables or passages of the source.
Experiments:
Assay in all cases: Resazurin-based cell viability assay, monotherapy drug screen
CAL-148 cells = tested on: CAL-148 cells; parameters: species or system human; AUC: unit not given beside the values; settings: CAL-148; for AUC: area under the dose response curve, 24 h; for GRmax: drug efficacy at highest tested dose (<0 cytotoxic, 0 cytostatic, >0 partial growth inhibition)
BT-549 cells = tested on: BT-549 cells; parameters: species or system human; AUC: scale not given here; settings: BT-549; for AUC: area under the dose response curve, 24 h; for GRmax: drug efficacy at highest tested dose (<0 cytotoxic, 0 cytostatic, >0 partial growth inhibition)
Outline: (§1)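 Cells were seeded at the highest density (tested 1000-16000 cells/well) giving linear growth between days 1 and 3, keeping them in exponential phase over the ~52 h experiment. Viability was read after 4 h at 37 °C with 0.2 mg/ml resazurin added at 10% of medium volume; ex 560/em 615 nm.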

HCC1806 cells = tested on: HCC1806 cells; parameters: species or system human; AUC: scale not given here; settings: HCC1806; for AUC: area under the dose response curve, 24 h; for GRmax: drug efficacy at highest tested dose (<0 cytotoxic, 0 cytostatic, >0 partial growth inhibition)
Outline: as §1

HCC38 cells = tested on: HCC38 cells; parameters: species or system human; AUC: scale not given here; settings: HCC38; for AUC: area under the dose response curve, 24 h; for GRmax: drug efficacy at highest tested dose (<0 cytotoxic, 0 cytostatic, >0 partial growth inhibition)
Outline: as §1

HCC70 cells = tested on: HCC70 cells; parameters: species or system human; AUC: scale not given here; settings: HCC70; for AUC: area under the dose response curve, 24 h; for GRmax: drug efficacy at highest tested dose (<0 cytotoxic, 0 cytostatic, >0 partial growth inhibition)
Outline: as §1

MCF-10A cells = tested on: MCF-10A cells; parameters: species or system human; AUC: scale not given here; settings: for AUC: area under the dose response curve, 24 h
Outline: as §1

MDA-MB-436 cells = tested on: MDA-MB-436 cells; parameters: species or system human; AUC: scale not given here; settings: MDA-MB-436; for AUC: area under the dose response curve, 24 h; for GRmax: drug efficacy at highest tested dose (<0 cytotoxic, 0 cytostatic, >0 partial growth inhibition)
Outline: as §1

MDA-MB-453 cells = tested on: MDA-MB-453 cells; parameters: species or system human; AUC: scale not given here; settings: MDA-MB-453; for AUC: area under the dose response curve, 24 h
Outline: as §1

MDA-MB-468 cells = tested on: MDA-MB-468 cells; parameters: species or system human; AUC: scale not given here; settings: MDA-MB-468; for AUC: area under the dose response curve, 24 h
Outline: as §1

[1] = 24 h drug treatment, read-out: IC50
[2] = growth rate inhibition concentration at GR(c) = 0.5, 24 h, read-out: GR50 (the source's name)
[3] = drug efficacy at highest tested dose (<0 cytotoxic, 0 cytostatic, >0 partial growth inhibition)
[4] = Homo sapiens, growth rate inhibition concentration at GR(c) = 0.5, 24 h, read-out: GR50 (the source's name)
[5] = Homo sapiens, 24 h drug treatment, read-out: IC50

SMILES: N.N.[Cl][Pt][Cl] [Cisplatin]
- IC50 (CAL-148 cells; [1]): 48 nM
- AUC (CAL-148 cells): 0.48
- GRmax (CAL-148 cells): −0.97
- IC50 (CAL-148 cells; [2]): 32 nM
- IC50 (BT-549 cells; [1]): 53 nM
- AUC (BT-549 cells): 0.57
- GRmax (BT-549 cells): −0.16
- IC50 (BT-549 cells; [2]): 35 nM
- IC50 (HCC1806 cells; [1]): 48 nM
- AUC (HCC1806 cells): 0.48
- GRmax (HCC1806 cells): −0.72
- IC50 (HCC1806 cells; [2]): 42 nM
- IC50 (HCC38 cells; [1]): 30 nM
- AUC (HCC38 cells): 0.45
- GRmax (HCC38 cells): −0.67
- IC50 (HCC38 cells; [2]): 19 nM
- IC50 (HCC70 cells; [1]): 22 nM
- AUC (HCC70 cells): 0.37
- GRmax (HCC70 cells): −0.89
- IC50 (HCC70 cells; [2]): 15 nM
- IC50 (MCF-10A cells; [1]): 27 nM
- AUC (MCF-10A cells): 0.42
- GRmax (MCF-10A cells; [3]): −0.32
- IC50 (MCF-10A cells; [2]): 28 nM
- IC50 (MDA-MB-436 cells; [1]): 64 nM
- AUC (MDA-MB-436 cells): 0.62
- GRmax (MDA-MB-436 cells): 0.17
- IC50 (MDA-MB-436 cells; [2]): 43 nM
- IC50 (MDA-MB-453 cells; [1]): 240 nM
- AUC (MDA-MB-453 cells): 0.75
- GRmax (MDA-MB-453 cells; [3]): 0.25
- IC50 (MDA-MB-453 cells; [2]): 95 nM
- IC50 (MDA-MB-468 cells; [1]): 15 nM
- AUC (MDA-MB-468 cells): 0.37
- GRmax (MDA-MB-468 cells; [3]): −0.46
- IC50 (MDA-MB-468 cells; [2]): 7.5 nM

SMILES: CC(C)C[C@H](NC(=O)[C@@H](NC(=O)c1cccc(-c2ccccc2)n1)[C@@H](C)O)B(O)O [Delanzomib]
- AUC (CAL-148 cells): 0.77
- GRmax (CAL-148 cells): 0.39
- IC50 (CAL-148 cells; [4]): 23 nM
- AUC (BT-549 cells): 0.73
- GRmax (BT-549 cells): 0.48
- AUC (HCC1806 cells): 0.74
- GRmax (HCC1806 cells): 0.50
- AUC (HCC38 cells): 0.42
- GRmax (HCC38 cells): −0.97
- IC50 (HCC38 cells; [5]): 12 nM
- IC50 (HCC38 cells; [4]): 8.2 nM
- AUC (HCC70 cells): 0.75
- GRmax (HCC70 cells): −0.36
- IC50 (HCC70 cells; [5]): 3300 nM
- IC50 (HCC70 cells; [4]): 370 nM
- IC50 (MCF-10A cells; [5]): 18 nM
- IC50 (MCF-10A cells; [4]): 12 nM
- AUC (MCF-10A cells): 0.62
- IC50 (MDA-MB-436 cells; [4]): 29 nM
- AUC (MDA-MB-436 cells): 0.79
- GRmax (MDA-MB-436 cells): −0.84
- IC50 (MDA-MB-453 cells; [4]): 27 nM
- AUC (MDA-MB-453 cells): 0.76
- IC50 (MDA-MB-468 cells; [5]): 77 nM
- IC50 (MDA-MB-468 cells; [4]): 11 nM
- AUC (MDA-MB-468 cells): 0.58

SMILES: CC(=O)O[C@@]12CO[C@@H]1C[C@H](O)[C@@]1(C)C(=O)[C@H](O)C3=C(C)[C@@H](OC(=O)[C@H](O)[C@@H](NC(=O)OC(C)(C)C)c4ccccc4)C[C@@](O)([C@@H](OC(=O)c4ccccc4)[C@H]21)C3(C)C [Docetaxel]
- AUC (CAL-148 cells): 0.89
- GRmax (CAL-148 cells): 0.74
- AUC (BT-549 cells): 0.79
- GRmax (BT-549 cells): 0.61
- AUC (HCC1806 cells): 0.64
- GRmax (HCC1806 cells): 0.56
- AUC (HCC38 cells): 0.78
- GRmax (HCC38 cells): 0.17
- IC50 (HCC38 cells; [4]): 13 nM
- AUC (HCC70 cells): 0.83
- GRmax (HCC70 cells): 0.72
- IC50 (MCF-10A cells; [5]): 50 nM
- IC50 (MCF-10A cells; [4]): 9 nM
- AUC (MCF-10A cells): 0.63
- IC50 (MDA-MB-436 cells; [4]): 5 nM
- AUC (MDA-MB-436 cells): 0.69
- GRmax (MDA-MB-436 cells): −0.81
- AUC (MDA-MB-453 cells): 0.87
- AUC (MDA-MB-468 cells): 0.77
